In ChEMBL document CHEMBL3137667, “[Drug-induced liver injury; fourteenth updated edition of the bibliographic database of liver injuries and related drugs]” (Gastroenterol Clin Biol, 2004):

Assays:
[1] = Highest frequency of moderate liver toxicity observed during clinical trials, expressed as a percentage. [column '% BIOL' in source]; settings: human
[2] = Highest frequency of acute liver toxicity observed during clinical trials, expressed as a percentage. [column '% AIGUE' in source]; settings: human
[3] = human, serum
[4] = human, serum; remark: listed apart in the source
[5] = human
[6] = human; remark: listed apart in the source
[7] = human; remark: listed apart in the source
[8] = human, serum, 4383 h
[9] = human; remark: listed apart in the source
[10] = human; remark: listed apart in the source
[11] = human; remark: listed apart in the source
[12] = human; remark: listed apart in the source
[13] = human; remark: listed apart in the source
[14] = human; remark: listed apart in the source
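Throughout, for Hepatotoxicity (association with vascular disease): count of indexed literature references reporting vascular liver injury in humans, e.g. peliosis hepatitis, hepatic veno-occlusive disease or Budd-Chiari syndrome.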
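Throughout, for Hepatotoxicity (benign tumour): value is a count of indexed literature references citing a benign tumour confirmed by histopathology.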
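Throughout, for Hepatotoxicity (choleostasis): human cholestatic liver injury, shown by histopathology or by peak ALT or AST elevation over alkaline phosphatase ratio below 2, value counts indexed literature reports.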
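Throughout, for Hepatotoxicity (chronic liver disease): chronic liver injury confirmed by histopathology or persistently raised serum aminotransferase activity beyond 6 months, value given as the count of indexed literature references.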
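Throughout, for Hepatotoxicity (cirrhosis): value is a count of indexed literature references reporting cirrhosis confirmed by histopathology.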
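Throughout, for Hepatotoxicity (cytolytic): human cytolytic liver injury, shown by histopathology or by a ratio above 5 of peak ALT or AST elevation to alkaline phosphatase elevation, value counts indexed references.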
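Throughout, for Hepatotoxicity (granulomatous hepatitis): value is a count of indexed literature references reporting granulomatous liver disease confirmed by histopathology.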
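Throughout, for Hepatotoxicity (malignant tumour): malignant tumour confirmed by histopathology, value gives the count of indexed literature references reporting it.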
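Throughout, for Hepatotoxicity (severe hepatitis): human clinical data: severe hepatitis, meaning potentially life-threatening liver failure or clinically observed cases, the value counts how many indexed literature references report it.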
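Throughout, for Hepatotoxicity (steatosis): steatosis confirmed by histopathology, value is the count of indexed references.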

Row | SMILES | Hepatotoxicity (moderate) [1] | Hepatotoxicity (acute) [2] | Hepatotoxicity (moderate) [3] | Hepatotoxicity (acute) [4] | Hepatotoxicity (cytolytic) [5] | Hepatotoxicity (choleostasis) [6] | Hepatotoxicity (severe hepatitis) [7] | Hepatotoxicity (chronic liver disease) [8] | Hepatotoxicity (cirrhosis) [9] | Hepatotoxicity (granulomatous hepatitis) [10] | Hepatotoxicity (association with vascular disease) [11] | Hepatotoxicity (steatosis) [12] | Hepatotoxicity (malignant tumour) [13] | Hepatotoxicity (benign tumour) [14] | Hepatotoxicity (moderate) ([1]; Liver) | Hepatotoxicity (acute) ([2]; Liver) | Hepatotoxicity (cytolytic) ([5]; Liver) | Hepatotoxicity (choleostasis) ([6]; Liver) | Hepatotoxicity (severe hepatitis) ([7]; Liver) | Hepatotoxicity (granulomatous hepatitis) ([10]; Liver)
1 | CN(C)CCN(Cc1ccccc1)c1ccccn1 [TRIPELENNAMINE] | 0% | 0% | 0 | 1 | 1 | 1 | 0 | 0 | 0 | 0 | 0 | 0 | 0 | 0 | – | – | – | – | – | –
2 | NC(CO)(CO)CO [TROMETHAMINE] | – | – | 0 | 2 | – | – | – | 0 | 0 | – | 0 | 0 | 0 | 0 | 0% | 0% | 2 | 0 | 2 | 0
3 | CCCC[C@@H]1CC(=O)[C@]2(O)O[C@@H]3[C@@H](NC)[C@@H](O)[C@@H](NC)[C@H](O)[C@H]3O[C@@H]2O1 [TROSPECTOMYCIN] | 33.3% | 0% | 2 | 0 | 0 | 0 | 0 | 0 | 0 | 0 | 0 | 0 | 0 | 0 | – | – | – | – | – | –
4 | CC(C)C[C@H](NC(=O)[C@@H](O)[C@H](N)Cc1ccccc1)C(=O)O [UBENIMEX] | 2.4% | 0% | 1 | 0 | 0 | 0 | 0 | 0 | 0 | 0 | 0 | 0 | 0 | 0 | – | – | – | – | – | –
5 | CC(C)[C@H](N)C(=O)OCC(CO)OCn1cnc2c(=O)nc(N)[nH]c21 (some centres not stated) [VALGANCICLOVIR] | 3% | 0% | 1 | 0 | 0 | 0 | 0 | 0 | 0 | 0 | 0 | 0 | 0 | 0 | – | – | – | – | – | –
6 | COc1ccc(C(=O)N2CCN(c3ccc4c(c3)CCC(=O)N4)CC2)cc1OC [VESNARINONE] | 0.4% | 0% | 1 | 0 | 0 | 0 | 0 | 0 | 0 | 0 | 0 | 0 | 0 | 0 | – | – | – | – | – | –
7 | CCOc1ccccc1OCC1CNCCO1 (configuration not stated) [VILOXAZINE] | – | – | 2 | 1 | – | – | – | 0 | 0 | – | 0 | 0 | 0 | 0 | 0% | 0% | 1 | 0 | 0 | 0
8 | Cc1ncc(-c2csc(N=C(N)N)n2)[nH]1 [ZALTIDINE] | 94% | 8% | 1 | 1 | 1 | 0 | 0 | 0 | 0 | 0 | 0 | 0 | 0 | 0 | – | – | – | – | – | –
